According to ChEMBL document CHEMBL1201862, “PubChem BioAssay data set” (2004):
Calls of active or inactive are those of the source.

Experiments:
[1] = target: Voltage-dependent T-type calcium channel subunit alpha-1H (Homo sapiens, UniProt O95180); assay type: functional;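 further: channel activity triggered by adding a high calcium stimulation buffer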
[2] = target: Multidrug resistance protein CDR1 (Candida albicans, UniProt P43071); experiment: CaCDR1 efflux pump inhibitors in yeast, dose response, S. cerevisiae AD1-8u, singleplex, Cherry Pick1 hits (AID 588606); assay type: functional
HEK293 [3] = experiment: HEK cell cytotoxicity by LDH release, dose response, cytotoxicity control for IDE activator project, fluorescence, HEK cells (AID 588440); assay type: functional, cell-based; conditions: Homo sapiens;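 further: cytotoxicity by LDH release measuring loss of membrane integrity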
HEK293 [4] = experiment: optical interference in Abeta FP readout, dose response, artefact control for IDE activator project, biochemical, fluorescence polarization (AID 588442); assay type: functional, cell-based; conditions: Homo sapiens
Insulin-degrading enzyme [5] = target: T1, Insulin-degrading enzyme (Homo sapiens, UniProt P14735); experiment: activators of endogenous IDE in HEK cells, dose response, cell-based, fluorescence polarization (AID 588439); assay type: functional
Insulin-degrading enzyme [6] = target: T1, Insulin-degrading enzyme; experiment: activators of recombinant IDE enzyme, dose response, counter-screen for IDE activator project, biochemical, fluorescence polarization (AID 588681)
[7] = target: Protein disulfide-isomerase (Homo sapiens, UniProt P07237); experiment: PDI inhibitors, insulin aggregation turbidity, dose response, biochemical, absorbance, cherry-picked samples (AID 602350); assay type: functional
[8] = target: 72 kDa type IV collagenase (Homo sapiens, UniProt P08253); experiment: Dose Response validation of uHTS RPN11 inhibitor hits using a MMP-2 Fluorescence assay.; assay type: functional
Beta-lactamase [9] = target: Beta-lactamase (Pseudomonas aeruginosa, UniProt Q79MP6);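 further: biochemical dose-response test of metallo-beta-lactamase enzyme inhibition, read out by epi-absorbance; purified recombinant IMP-1 metallo-beta-lactamase with nitrocefin as substrate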
[10] = target: 26S proteasome non-ATPase regulatory subunit 14 (Homo sapiens, UniProt O00487); experiment: inhibition of proteasome subunit RPN11 – biochemical, fluorescence polarization, uHTS hits, confirmation (AID 602368); assay type: functional
Prothrombin = Prothrombin (Bos taurus, UniProt P00735); experiment: thrombin inhibition, dose response, biochemical, fluorescence polarization, uHTS hits (AID 602369); assay type: functional
[11] = polyadenylation inhibitors in yeast reporter, dose response, luminescence, S. cerevisiae SKY197-pL101 (AID 2525); assay type: functional, cell-based
[12] = Luminescence Cell-Based Dose Confirmation HTS to Identify Inhibitors of Polyadenylation.; assay type: functional
Beta-lactamase [13] = target: Beta-lactamase (Salmonella choleraesuis (strain SC-B67), UniProt Q5J463)
[14] = viability loss in Mcl1-dependent HMC-1-8 cells, dose response, selectivity assay for A1 inhibitor project, cell-based, luminescence, dry powder (AID 504415); assay type: functional; conditions: Homo sapiens
[15] = target: DNA dC->dU-editing enzyme APOBEC-3G (Homo sapiens, UniProt Q9HC16); experiment: APOBEC3G deaminase inhibitors, SAR follow-up, biochemical, fluorescence, single-stranded DNA substrate (AID 602136); assay type: functional; conditions: read-out: IC50_Mean
[16] = target: DNA dC->dU-editing enzyme APOBEC-3A (Homo sapiens, UniProt P31941); experiment: SAR analysis of small molecule inhibitors of APOBEC3A DNA Deaminase via a fluorescence-based single-stranded DNA deaminase assay.; assay type: functional; conditions: read-out: IC50_Mean
[17] = target: T2, Apoptotic protease-activating factor 1 (Homo sapiens, UniProt O14727); experiment: SAR analysis of small molecule inhibitors of Apaf-1 in a Fluorescent assay.; assay type: functional; conditions: read-out: IC50_Mean
T2 sequence (O14727 whole entry): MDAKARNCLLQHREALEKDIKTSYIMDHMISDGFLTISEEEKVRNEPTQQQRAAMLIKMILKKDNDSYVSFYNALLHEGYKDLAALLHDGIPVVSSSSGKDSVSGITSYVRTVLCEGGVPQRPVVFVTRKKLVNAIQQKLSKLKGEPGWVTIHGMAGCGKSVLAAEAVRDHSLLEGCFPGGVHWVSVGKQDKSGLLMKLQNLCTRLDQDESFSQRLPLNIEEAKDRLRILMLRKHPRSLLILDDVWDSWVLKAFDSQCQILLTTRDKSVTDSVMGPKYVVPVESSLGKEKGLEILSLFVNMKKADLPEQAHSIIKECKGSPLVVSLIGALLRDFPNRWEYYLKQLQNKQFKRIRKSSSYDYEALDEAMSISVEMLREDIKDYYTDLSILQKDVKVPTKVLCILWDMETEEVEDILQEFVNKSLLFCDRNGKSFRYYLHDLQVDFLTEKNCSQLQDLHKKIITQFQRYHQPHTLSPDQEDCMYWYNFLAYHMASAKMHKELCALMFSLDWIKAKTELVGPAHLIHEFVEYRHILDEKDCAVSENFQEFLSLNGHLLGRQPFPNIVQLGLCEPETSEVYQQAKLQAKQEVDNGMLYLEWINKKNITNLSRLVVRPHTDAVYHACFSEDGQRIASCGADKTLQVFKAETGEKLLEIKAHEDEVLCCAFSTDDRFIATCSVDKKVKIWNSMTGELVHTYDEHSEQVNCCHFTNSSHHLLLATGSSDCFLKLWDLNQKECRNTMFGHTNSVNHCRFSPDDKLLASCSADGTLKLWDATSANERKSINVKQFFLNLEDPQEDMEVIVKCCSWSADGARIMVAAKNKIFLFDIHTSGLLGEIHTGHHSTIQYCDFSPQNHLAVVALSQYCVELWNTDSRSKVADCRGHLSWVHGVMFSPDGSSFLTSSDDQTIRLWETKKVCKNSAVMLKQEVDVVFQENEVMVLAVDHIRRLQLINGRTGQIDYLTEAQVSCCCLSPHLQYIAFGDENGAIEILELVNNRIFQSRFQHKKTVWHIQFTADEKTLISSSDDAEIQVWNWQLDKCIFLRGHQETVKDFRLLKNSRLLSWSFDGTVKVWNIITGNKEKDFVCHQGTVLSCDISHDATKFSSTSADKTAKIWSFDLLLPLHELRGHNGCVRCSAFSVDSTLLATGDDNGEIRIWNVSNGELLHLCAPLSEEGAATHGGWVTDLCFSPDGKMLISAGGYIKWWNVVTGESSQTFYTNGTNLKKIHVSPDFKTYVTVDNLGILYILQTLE

[18] = target: Mitogen-activated protein kinase 14 (Homo sapiens, UniProt Q16539); assay type: functional;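 further: part of a kinome-wide panel, MAPK14 entry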
[19] = target: Tyrosine-protein kinase Lck (Homo sapiens, UniProt P06239); assay type: functional;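 further: lck was assayed as one member of a kinase panel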
[20] = target: Calcium/calmodulin-dependent protein kinase type II subunit alpha (Homo sapiens, UniProt Q9UQM7); experiment: Navigating the Kinome. Panel member name: CAMK2A; assay type: functional
[21] = target: Tyrosine-protein kinase Fyn (Homo sapiens, UniProt P06241); assay type: functional
[22] = target: Tyrosine-protein kinase BTK (Homo sapiens, UniProt Q06187); assay type: functional
Focal adhesion kinase 1 = Focal adhesion kinase 1 (Homo sapiens, UniProt Q05397); assay type: functional;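 further: measured as one member of a kinome panel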
[23] = target: T3, Serine/threonine-protein kinase TAO1 (Homo sapiens, UniProt Q7L7X3); assay type: functional
T3 sequence (Q7L7X3 whole entry): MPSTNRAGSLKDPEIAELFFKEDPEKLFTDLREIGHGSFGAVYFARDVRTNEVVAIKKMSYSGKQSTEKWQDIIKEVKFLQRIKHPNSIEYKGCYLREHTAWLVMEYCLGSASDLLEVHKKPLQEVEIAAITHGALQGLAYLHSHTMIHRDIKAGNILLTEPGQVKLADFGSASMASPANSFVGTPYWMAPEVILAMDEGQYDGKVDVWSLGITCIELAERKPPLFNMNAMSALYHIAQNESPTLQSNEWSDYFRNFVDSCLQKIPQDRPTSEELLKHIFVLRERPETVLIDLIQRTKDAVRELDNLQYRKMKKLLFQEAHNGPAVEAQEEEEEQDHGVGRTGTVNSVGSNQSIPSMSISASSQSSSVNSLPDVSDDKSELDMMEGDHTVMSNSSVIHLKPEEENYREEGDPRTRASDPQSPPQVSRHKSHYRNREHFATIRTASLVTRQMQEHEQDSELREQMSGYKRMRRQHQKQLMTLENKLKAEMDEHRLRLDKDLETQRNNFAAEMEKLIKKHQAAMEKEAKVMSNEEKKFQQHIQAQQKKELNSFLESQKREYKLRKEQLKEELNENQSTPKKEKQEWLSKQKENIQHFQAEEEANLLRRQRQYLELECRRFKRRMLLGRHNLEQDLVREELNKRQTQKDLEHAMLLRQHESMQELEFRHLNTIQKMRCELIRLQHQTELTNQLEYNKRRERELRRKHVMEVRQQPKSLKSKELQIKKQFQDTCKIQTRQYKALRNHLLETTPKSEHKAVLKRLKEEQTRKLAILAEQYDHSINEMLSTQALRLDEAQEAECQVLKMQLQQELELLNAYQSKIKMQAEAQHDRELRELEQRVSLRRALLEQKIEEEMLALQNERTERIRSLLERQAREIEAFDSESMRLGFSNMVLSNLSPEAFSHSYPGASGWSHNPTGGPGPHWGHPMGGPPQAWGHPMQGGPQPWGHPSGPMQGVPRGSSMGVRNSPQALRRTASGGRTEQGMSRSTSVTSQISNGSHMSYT

[24] = target: ALK tyrosine kinase receptor (Homo sapiens, UniProt Q9UM73); assay type: functional;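 further: ALK tested as one member of a kinase panel screen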

T1 sequence (P14735 whole entry): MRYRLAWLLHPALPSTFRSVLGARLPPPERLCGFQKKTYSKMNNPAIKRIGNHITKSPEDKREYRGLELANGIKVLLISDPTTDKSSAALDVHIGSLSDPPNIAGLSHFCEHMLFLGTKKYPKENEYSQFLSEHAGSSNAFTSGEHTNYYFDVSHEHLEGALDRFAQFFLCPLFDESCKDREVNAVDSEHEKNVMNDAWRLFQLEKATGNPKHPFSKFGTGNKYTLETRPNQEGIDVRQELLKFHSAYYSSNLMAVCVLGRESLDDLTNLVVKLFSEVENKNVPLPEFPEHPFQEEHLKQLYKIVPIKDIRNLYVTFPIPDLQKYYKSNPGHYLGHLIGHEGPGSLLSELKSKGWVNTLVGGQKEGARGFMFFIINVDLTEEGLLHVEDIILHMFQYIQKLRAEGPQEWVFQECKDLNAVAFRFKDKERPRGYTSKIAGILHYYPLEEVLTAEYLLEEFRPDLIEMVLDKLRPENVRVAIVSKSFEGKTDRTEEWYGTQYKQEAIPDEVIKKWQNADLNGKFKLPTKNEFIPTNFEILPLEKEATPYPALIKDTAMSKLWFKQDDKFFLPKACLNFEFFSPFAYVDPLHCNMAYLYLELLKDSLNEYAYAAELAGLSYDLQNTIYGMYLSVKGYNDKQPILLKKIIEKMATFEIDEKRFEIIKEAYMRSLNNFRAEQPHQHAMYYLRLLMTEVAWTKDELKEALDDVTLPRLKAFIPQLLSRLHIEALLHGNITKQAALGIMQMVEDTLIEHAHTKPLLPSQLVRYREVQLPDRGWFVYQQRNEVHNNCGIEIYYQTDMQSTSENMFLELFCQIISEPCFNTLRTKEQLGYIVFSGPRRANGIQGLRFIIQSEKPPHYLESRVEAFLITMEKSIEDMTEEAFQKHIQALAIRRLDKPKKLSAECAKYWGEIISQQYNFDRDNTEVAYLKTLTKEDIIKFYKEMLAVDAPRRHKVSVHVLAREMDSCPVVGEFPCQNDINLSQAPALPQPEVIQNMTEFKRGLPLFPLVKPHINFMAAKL
Voltage-dependent T-type calcium channel subunit alpha-1H, sequence (O95180 whole entry): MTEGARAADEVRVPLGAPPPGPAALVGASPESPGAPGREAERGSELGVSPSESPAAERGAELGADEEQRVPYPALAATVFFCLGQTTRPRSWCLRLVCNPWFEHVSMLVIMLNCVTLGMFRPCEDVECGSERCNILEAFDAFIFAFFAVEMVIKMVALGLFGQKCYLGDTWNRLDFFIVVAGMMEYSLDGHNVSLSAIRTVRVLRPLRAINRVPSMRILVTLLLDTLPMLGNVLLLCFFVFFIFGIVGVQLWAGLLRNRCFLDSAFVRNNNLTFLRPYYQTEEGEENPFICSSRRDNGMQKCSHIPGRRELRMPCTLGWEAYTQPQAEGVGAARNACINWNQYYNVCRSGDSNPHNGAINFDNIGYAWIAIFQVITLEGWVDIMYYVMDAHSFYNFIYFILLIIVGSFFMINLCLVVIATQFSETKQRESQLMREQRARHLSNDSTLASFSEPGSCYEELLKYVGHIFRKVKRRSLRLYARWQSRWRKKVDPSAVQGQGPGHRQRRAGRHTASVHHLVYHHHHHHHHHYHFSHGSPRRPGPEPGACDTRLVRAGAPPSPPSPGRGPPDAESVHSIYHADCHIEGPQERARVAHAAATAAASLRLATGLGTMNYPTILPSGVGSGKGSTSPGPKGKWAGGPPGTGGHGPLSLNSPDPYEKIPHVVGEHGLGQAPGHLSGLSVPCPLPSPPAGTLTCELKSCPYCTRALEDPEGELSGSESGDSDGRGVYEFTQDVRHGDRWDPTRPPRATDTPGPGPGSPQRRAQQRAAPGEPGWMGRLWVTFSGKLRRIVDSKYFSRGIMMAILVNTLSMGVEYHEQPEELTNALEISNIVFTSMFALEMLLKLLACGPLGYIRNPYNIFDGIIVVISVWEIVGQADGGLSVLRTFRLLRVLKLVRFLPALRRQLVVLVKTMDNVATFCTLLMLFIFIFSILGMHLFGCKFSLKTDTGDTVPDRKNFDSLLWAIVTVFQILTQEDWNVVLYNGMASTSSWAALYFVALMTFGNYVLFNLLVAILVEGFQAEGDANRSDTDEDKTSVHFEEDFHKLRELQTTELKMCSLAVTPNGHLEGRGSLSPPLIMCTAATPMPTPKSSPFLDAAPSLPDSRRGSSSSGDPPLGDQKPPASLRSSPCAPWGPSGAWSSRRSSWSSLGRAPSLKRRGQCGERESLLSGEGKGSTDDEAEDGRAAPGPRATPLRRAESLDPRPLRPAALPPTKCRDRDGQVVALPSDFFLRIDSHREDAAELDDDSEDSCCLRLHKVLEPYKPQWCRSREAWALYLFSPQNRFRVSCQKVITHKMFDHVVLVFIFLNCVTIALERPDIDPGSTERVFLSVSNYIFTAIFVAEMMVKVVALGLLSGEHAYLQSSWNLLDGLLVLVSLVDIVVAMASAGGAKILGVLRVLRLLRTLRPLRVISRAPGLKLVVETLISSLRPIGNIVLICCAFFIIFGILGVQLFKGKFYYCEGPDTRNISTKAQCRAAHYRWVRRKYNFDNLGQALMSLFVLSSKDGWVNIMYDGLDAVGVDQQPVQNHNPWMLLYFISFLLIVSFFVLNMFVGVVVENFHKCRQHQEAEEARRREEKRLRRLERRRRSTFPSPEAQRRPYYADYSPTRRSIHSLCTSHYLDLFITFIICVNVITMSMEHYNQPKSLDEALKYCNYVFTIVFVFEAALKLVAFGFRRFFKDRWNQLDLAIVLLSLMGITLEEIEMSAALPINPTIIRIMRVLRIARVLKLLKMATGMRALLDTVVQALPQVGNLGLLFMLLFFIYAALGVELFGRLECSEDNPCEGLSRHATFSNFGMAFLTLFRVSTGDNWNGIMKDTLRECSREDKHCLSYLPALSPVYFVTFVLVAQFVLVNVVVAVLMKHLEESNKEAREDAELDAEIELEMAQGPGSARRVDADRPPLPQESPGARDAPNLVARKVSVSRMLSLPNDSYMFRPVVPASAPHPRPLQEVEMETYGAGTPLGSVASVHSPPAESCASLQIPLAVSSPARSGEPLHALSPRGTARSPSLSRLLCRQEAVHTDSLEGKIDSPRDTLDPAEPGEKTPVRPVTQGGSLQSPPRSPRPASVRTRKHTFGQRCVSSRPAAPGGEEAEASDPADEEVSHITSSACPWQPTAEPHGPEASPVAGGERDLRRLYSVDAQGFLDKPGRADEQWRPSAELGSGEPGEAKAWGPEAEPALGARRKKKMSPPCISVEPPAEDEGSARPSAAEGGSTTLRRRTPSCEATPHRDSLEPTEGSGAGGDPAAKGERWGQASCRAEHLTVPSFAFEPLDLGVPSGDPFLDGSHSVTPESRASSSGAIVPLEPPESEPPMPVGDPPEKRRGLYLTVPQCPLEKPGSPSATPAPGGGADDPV
Beta-lactamase (Pseudomonas aeruginosa, UniProt Q79MP6), sequence (Q79MP6 whole entry): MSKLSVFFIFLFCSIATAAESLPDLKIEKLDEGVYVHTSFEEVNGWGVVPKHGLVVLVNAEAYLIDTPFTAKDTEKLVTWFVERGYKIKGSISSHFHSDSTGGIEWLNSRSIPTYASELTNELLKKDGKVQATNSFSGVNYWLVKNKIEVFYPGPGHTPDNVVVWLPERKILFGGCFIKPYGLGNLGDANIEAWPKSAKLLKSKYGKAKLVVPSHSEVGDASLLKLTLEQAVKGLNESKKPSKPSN
Tyrosine-protein kinase BTK, sequence (Q06187 whole entry): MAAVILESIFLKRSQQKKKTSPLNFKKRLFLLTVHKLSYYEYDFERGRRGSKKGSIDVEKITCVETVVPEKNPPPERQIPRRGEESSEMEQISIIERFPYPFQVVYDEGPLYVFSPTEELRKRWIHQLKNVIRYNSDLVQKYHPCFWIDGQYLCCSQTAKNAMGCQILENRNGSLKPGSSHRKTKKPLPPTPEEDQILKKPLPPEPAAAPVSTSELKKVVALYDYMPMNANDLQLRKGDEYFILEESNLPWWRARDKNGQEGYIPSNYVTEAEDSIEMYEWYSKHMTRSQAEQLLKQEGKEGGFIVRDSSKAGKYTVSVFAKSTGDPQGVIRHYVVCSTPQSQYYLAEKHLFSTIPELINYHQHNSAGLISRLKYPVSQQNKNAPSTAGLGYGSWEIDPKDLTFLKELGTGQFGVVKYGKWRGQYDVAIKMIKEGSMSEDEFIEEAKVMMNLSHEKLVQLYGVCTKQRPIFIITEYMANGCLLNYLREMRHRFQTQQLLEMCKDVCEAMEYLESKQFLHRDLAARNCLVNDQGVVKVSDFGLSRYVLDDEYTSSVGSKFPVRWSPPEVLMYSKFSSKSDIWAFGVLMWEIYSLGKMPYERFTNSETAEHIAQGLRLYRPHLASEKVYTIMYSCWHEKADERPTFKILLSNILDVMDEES
DNA dC->dU-editing enzyme APOBEC-3A, sequence (P31941 whole entry): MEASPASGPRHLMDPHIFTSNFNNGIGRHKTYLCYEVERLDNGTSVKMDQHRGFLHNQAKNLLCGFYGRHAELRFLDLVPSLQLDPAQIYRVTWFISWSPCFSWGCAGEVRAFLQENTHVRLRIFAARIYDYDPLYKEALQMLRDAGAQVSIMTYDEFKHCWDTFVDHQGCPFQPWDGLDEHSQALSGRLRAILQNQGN
Tyrosine-protein kinase Lck, sequence (P06239 whole entry): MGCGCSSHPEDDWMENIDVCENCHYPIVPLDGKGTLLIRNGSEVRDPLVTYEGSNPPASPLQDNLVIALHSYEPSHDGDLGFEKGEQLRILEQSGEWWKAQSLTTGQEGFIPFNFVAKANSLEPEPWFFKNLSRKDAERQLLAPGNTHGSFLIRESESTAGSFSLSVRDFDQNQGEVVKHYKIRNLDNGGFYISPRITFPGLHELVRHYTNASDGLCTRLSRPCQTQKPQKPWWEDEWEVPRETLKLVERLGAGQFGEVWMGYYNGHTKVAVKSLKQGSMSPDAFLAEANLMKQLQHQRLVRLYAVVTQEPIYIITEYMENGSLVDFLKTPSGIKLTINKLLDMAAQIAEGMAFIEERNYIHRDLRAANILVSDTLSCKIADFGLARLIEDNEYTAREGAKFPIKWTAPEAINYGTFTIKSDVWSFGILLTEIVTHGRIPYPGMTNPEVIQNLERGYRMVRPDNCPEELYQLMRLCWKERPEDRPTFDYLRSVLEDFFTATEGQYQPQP

With `O=C(CSc1nnc(Cc2cccs2)n1Cc1ccco1)Nc1ccc(Br)cc1` the EC50 [1] was 3.12 µM (active) and the EC50 [2] was 9 nM (active).
In the case of `O=C(O)c1ccccc1Nc1ccc([N+](=O)[O-])c2nonc12`, the IC50 (HEK293 [3]) is reported as > 89.2 µM (inactive), the EC50 (HEK293 [4]) is reported as > 54.7 µM (inactive) and the EC50 (Insulin-degrading enzyme [5]) is reported as > 54.7 µM (inactive). The EC50 (Insulin-degrading enzyme [6]) was > 54.7 µM (inactive).
In the case of `CCOC(=O)c1c(CNCCN(CC)CC)n(C)c2cc(Br)c(OC)cc12`, the AC50 [7] is reported as 376 nM (active).
For `COc1cc(/C=C2/SC(=S)N(Cc3ccccc3)C2=O)cc(OC)c1O`, the IC50 [8] was > 100 µM (inactive), the IC50 (Beta-lactamase [9]) was > 59.6 µM (inactive) and the IC50 [10] was 2.36 µM (active). The IC50 (Prothrombin) was 2.9 µM (active), the EC50 [11] was 31.9 µM (active) and the EC50 [12] was 27.8 µM (inconclusive). For the same molecule, the IC50 (Beta-lactamase [13]) was > 59.6 µM (inactive).
With `O=[N+]([O-])c1cnc2ccccc2c1Sc1ccccc1` the AC50 [14] was 39.2 µM (active).
In the case of `CC(=O)c1c(C)[nH]c(C(=O)CN(C)CC(=O)Nc2ccc(F)c(F)c2F)c1C`, the IC50 [15] is reported as > 99 µM (inactive) and the IC50 [16] is reported as > 99 µM (inactive).
With `Cn1cc(C(CC(=O)c2ccc(C3CCCCC3)cc2)C(=O)O)c2ccccc21` (stereo unspecified) the IC50 [17] was 69.6 µM (active).
In the case of `CC(C)CC(CO)NC(=O)c1cccc(-n2nc(C(C)(C)C)cc2NC(=O)Nc2cccc3ccccc23)c1` (stereo unspecified), the Ki [18] is reported as 631 nM (active), the Ki [19] is reported as > 6.31 µM (inactive) and the Ki [20] is reported as > 7.94 µM (inactive). The Ki [21] was > 6.31 µM (inactive), the Ki [22] was > 6.31 µM (inactive) and the Ki (Focal adhesion kinase 1) was > 6.31 µM (inactive). For the same molecule, the Ki [23] was > 6.31 µM (inactive) and the Ki [24] was > 6.31 µM (inactive).
